# Measured values published in patent publication US10662411B2, “Culture method for stable proliferation of pluripotent stem cell while maintaining undifferentiated state” (AJINOMOTO CO., INC., priority 2013, dated 2020).
# Structures can show the parent of a compound that is named as a salt.
# Assays:
# Format in all cases: cell-based, human
# [1] = system: induced pluripotent stem cells (iPS cells, 201B7 strain); assay: Influence of oleic acid carried by albumin on cell proliferation; conditions: oleic acid carried by albumin 2.2, 6.5, 21.7 mg/g (20, 60, 200 μM in medium); albumin 2.6 g/l, ethanolamine 30 μM; one week
# Experimental: (§1) In the following Examples, proliferation effects of various test compounds on human pluripotent stem cells were evaluated. As human pluripotent stem cells, induced pluripotent stem cells (iPS cells, 201B7 strain) purchased from iPS Academia Japan, Inc. were used, unless particularly specified. Cell culture was performed using a culture vessel (Becton, Dickinson and Company, Falcon culture petri dish or Falcon culture plate) coated with a basal lamina matrix under the conditions of 5% CO2/37° C.
# Furthermore, a suspension of activated carbon (5 g, manufactured by Wako Pure Chemical Industries, Ltd.) heated at 200° C. for 30 min in advance in phosphate buffer (20 ml) was added to 100 ml. After stirring at 4° C. for 3 hr, the mixture was centrifuged at 4° C., 11,900 rpm for 20 min. […] Ethanolamine (final concentration 30 μM) was added to each medium. Using each medium, the cells were cultured for one week, and the cell number after culture was confirmed to study the influence of oleic acid. 13,000 viable cells per well were used for single cell-seeding. As a basal lamina matrix, a fragment containing the active domain of laminin 511, which was purchased from Osaka University, was applied at 4.8 μg/well. […] The number of viable cells was measured by Cell Viability autoanalyzer ViCELL™ XR (BECKMAN COULTER).
# [2] = system: induced pluripotent stem cells (iPS cells, 201B7 strain); assay: Proliferation promoting effect of ethanolamine analogs, laminin 511 fragment, single cell-seeding; conditions: 1 week
# Experimental: as §1
# (§2) Various test compounds were added to a medium having the “E8” composition (disclosed in Nature Methods, 2011, 8, 424-429, which is incorporated herein by reference in its entirety) considered at present to be the minimum composition for cultivating human pluripotent stem cells at given concentrations and used for culture, and the effects thereof were studied. The medium was prepared by using Essential 8 (Life Technologies: A14666SA) considered to have the “E8” composition or a medium formulated to have an equivalent composition.
# (§3) After the culture, the cell number was counted to examine the effect of O-phosphoryl ethanolamine. The culture period was set to 1 week. 13,000 viable cells per well were used for single cell-seeding. As a basal lamina matrix, a fragment containing the active domain of laminin 511, which was purchased from Osaka University, was applied at 4.8 μg/well. Y-27632 was added (final concentration 10 μM, Nacalai Tesque: 08945-84) to the medium used for seeding. The cells were cultured in a medium free of Y-27632 from the following day. The number of viable cells was measured by Cell Viability autoanalyzer ViCELL™ XR (BECKMAN COULTER).
# as §3, with “2-(methylamino)ethanol.” for “O-phosphoryl ethanolamine.”
# as §3, with “2-dimethylaminoethanol.” for “O-phosphoryl ethanolamine.”
# as §3, with “ethanolamine hydrochloride.” for “O-phosphoryl ethanolamine.”, “The cells were cultured in a medium free of Y-27632 from the following day.” left out
# [3] = system: induced pluripotent stem cells (iPS cells, 201B7 strain); assay: Proliferation promoting effect of ethanolamine, culture using matrigel; conditions: 6, 30, 150, 750 or 3,750 μM, 8 days, single cell-seeding
# Experimental: as §1, §2
# Ethanolamine (Sigma-Aldrich Co. LLC: E0135) was added at a final concentration of 6, 30, 150, 750 or 3,750 μM, and the medium was used for culture immediately after preparation, and the effect of ethanolamine was examined by studying the cell numbers after culture. The culture period was 8 days. 100,000 cells per 1 well were used for single cell-seeding. […]
# [4] = system: induced pluripotent stem cells (iPS cells, 201B7 strain); assay: Proliferation promoting effect of ethanolamine and combination with albumin, laminin 511 fragment, single cell-seeding; conditions: 1 week
# Experimental: as §1, §2
# Ethanolamine (Sigma-Aldrich Co. LLC: E0135) was added at a final concentration of 6, 30, 150, 750 or 3,750 μM, and the medium was used for culture immediately after preparation, and the effect of ethanolamine was examined by studying the cell numbers after culture. The culture period was 1 week. […] 13,000 viable cells per 1 well were used for single cell-seeding. As a basal lamina matrix, a fragment containing the active domain of laminin 511, which was purchased from Osaka University, was applied at 5 μg/well. Y-27632 was added (final concentration 10 μM, Nacalai Tesque: 08945-84) to the medium used for seeding. The cells were cultured in a medium free of Y-27632 from the following day. The number of viable cells was measured by Trypan Blue (Life Technologies: 15250-061) staining using a hemocytometer.
# [5] = 6, 30, 150 or 750 μM in medium with albumin 2.6 g/l
structure (smiles),measurement,setting,value
CCCCCCCC/C=C\CCCCCCCC(=O)O [oleic acid],cell number after culture,[1],cell proliferation was suppressed along with an increasing amount of oleic acid carried by albumin
NCCO [ethanolamine hydrochloride],cell number relative to non-addition group (0 μM),[2]; [5],proliferation-promoting effect in a relatively wide concentration range
NCCOP(=O)(O)O [O-phosphoryl ethanolamine],cell number relative to non-addition group (0 μM),[2]; [5],proliferation-promoting effect in a relatively wide concentration range
CNCCO [2-(methylamino)ethanol],cell number relative to non-addition group (0 μM),[2]; [5],proliferation-promoting effect in a relatively wide concentration range
CN(C)CCO [2-dimethylaminoethanol],cell number relative to non-addition group (0 μM),[2]; [5],proliferation promoting effect in a relatively wide concentration range
same,cell number relative to non-addition group (0 μM),"[2]; high concentration range, medium with albumin 2.6 g/l",proliferation suppressive effect appears in a high concentration range
NCCO [ethanolamine],cell number after culture,[3],proliferation promoting effect in a wide concentration range
same,cell number relative to non-addition group (0 μM),"[4]; 6, 30, 150, 750 or 3,750 μM, without albumin",proliferation-promoting effect in a relatively wide concentration range
same,cell number relative to non-addition group (0 μM),"[4]; 6-3,750 μM combined with albumin 2.6 g/l",combination with albumin further enhances the proliferation promoting effect
same,cell number relative to non-addition group (0 μM),[4]; high concentration range combined with albumin 2.6 g/l,"resists a proliferation suppressive effect in a high concentration range, and shows a proliferation promoting effect"
same,cell number relative to non-addition group (0 μM),"[4]; high concentration range, without albumin",proliferation suppressive effect conversely appears in a high concentration range
